Molecular target: T1, hCRTH2 (Homo sapiens, UniProt Q9Y5Y4)
T1 construct: expressed in transfected cells; host or cells: HEK (human embryonic kidney) cells expressing hCRTH2; membrane preparation
T1 sequence (Q9Y5Y4 1-395): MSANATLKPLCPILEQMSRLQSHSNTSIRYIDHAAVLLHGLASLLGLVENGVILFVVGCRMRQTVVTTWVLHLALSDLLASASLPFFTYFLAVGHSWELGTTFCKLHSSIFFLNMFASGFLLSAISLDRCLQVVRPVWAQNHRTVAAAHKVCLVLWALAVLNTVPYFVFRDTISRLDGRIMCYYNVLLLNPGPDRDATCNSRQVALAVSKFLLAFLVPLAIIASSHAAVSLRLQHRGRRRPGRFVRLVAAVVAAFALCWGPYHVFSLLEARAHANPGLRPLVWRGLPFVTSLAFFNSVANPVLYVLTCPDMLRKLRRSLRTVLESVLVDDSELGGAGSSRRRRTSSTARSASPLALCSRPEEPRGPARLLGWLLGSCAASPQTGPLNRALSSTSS
Assay: Radioligand binding assay ([3H]PGD2 competition, HEK-hCRTH2 membranes)
Conditions: [3H]PGD2 binding
Summary of the method: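 Competition against 3.0 nM [3H]PGD2 was run for 60 min at room temperature in pH 7.4 Tris-HCl buffer with EDTA, 2 mM MnCl2 and 1% DMSO, using 8-20 μg HEK-hCRTH2 membrane protein. 10 μM PGD2 set non-specific binding; filter-bound counts were read by scintillation.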

SMILES | Ki (rated A-E (Table A)) [nM] | Ki (values in text) [nM]
COc1ccc(-c2nc3ccc(C(=O)N4CCC(c5ccccc5)CC4)cc3nc2CCCCC(=O)O)c(Cl)c1 [26W, 3-(2-chloro-4-methoxyphenyl)-7-[(4-phenyl-1-piperidinyl)carbonyl]-2-quinoxalinepentanoic acid] | 0.1 to 2 | 
CS(=O)(=O)c1ccc(-c2nc3ccc(C(=O)N4CCC(c5ccccc5)CC4)cc3nc2CCCCC(=O)O)cc1 [26X] | 20.1 to 200 | 
O=C(O)CCCCc1nc2cc(C(=O)N3CCC(c4ccccc4)CC3)ccc2nc1-c1ccc(Cl)cc1Cl [26Y, 3-(2,4-dichlorophenyl)-7-[(4-phenyl-1-piperidinyl)carbonyl]-2-quinoxalinepentanoic acid] | 0.1 to 2 | 
COc1ccc(-c2nc3ccc(C(=O)N4CCC(c5ccccc5)CC4)cc3nc2CCCCC(=O)O)c(OC)c1 [26Z, 3-(2,4-dimethoxyphenyl)-7-[(4-phenyl-1-piperidinyl)carbonyl]-2-quinoxalinepentanoic acid] | 0.1 to 2 | 
O=C(O)CCCCc1nc2cc(C(=O)N3CCC(c4ccccc4)C3)ccc2nc1-c1cc(F)cc(F)c1 (centres unmarked) [26i, 3-(3,5-difluorophenyl)-7-[(3-phenyl-1-pyrrolidinyl)carbonyl]-2-quinoxalinepentanoic acid] | 2.1 to 20 | 
COc1ccc(-c2nc3ccc(C(=O)N4CCC(c5ccccc5)CC4)cc3nc2CCCCC(=O)O)cc1 [26o, 3-(4-methoxyphenyl)-7-[(4-phenyl-1-piperidinyl)carbonyl]-2-quinoxalinepentanoic acid] | 0.1 to 2 | 1.4
C[C@@H](NC(=O)c1ccc2nc(-c3ccc(Cl)cc3)c(CC3CC(C(=O)O)C3)nc2c1)c1ccc(F)cc1 (some centres unmarked) [30E] | 2.1 to 20 | 
O=C(O)CCCCc1nc2cc(C(=O)N3CC(c4nc5ccccc5o4)C3)ccc2nc1-c1ccccc1 [31C] | 2.1 to 20 | 
C[C@@H](NC(=O)c1ccc2nc(-c3ccccc3)c(NCCCC(=O)O)nc2c1)c1ccc(F)cc1 [44D, (R)-4-((7-((1-(4-fluorophenyl)ethyl)carbamoyl)-3-phenylquinoxalin-2-yl)amino)butanoic acid] | 2.1 to 20 | 
O=C(O)CCCNc1nc2cc(C(=O)N[C@@H]3CCCc4cc(F)ccc43)ccc2nc1-c1ccccc1 [44E, (R)-4-((7-((6-fluoro-1,2,3,4-tetrahydronaphthalen-1-yl)carbamoyl)-3-phenylquinoxalin-2-yl)amino)butanoic acid] | 2.1 to 20 | 
O=C(O)CCCNc1nc2cc(C(=O)N3CCN(c4ccccc4)CC3)ccc2nc1-c1ccccc1 [44F, 4-((3-phenyl-7-(4-phenylpiperazine-1-carbonyl)quinoxalin-2-yl)amino)butanoic acid] | 2.1 to 20 | 
C[C@@H](NC(=O)c1ccc2nc(-c3ccccc3)c(NCCCC(=O)O)nc2c1)c1ccc(C#N)cc1 [44G] | 20.1 to 200 | 
O=C(O)CCCNc1nc2cc(C(=O)N3CCN(c4ccc(F)cc4)CC3)ccc2nc1-c1ccccc1 [44H, 4-((7-(4-(4-fluorophenyl)piperazine-1-carbonyl)-3-phenylquinoxalin-2-yl)amino)butanoic acid] | 2.1 to 20 | 3.1
O=C(O)CCCNc1nc2cc(C(=O)N3CCC(c4ccc(F)cc4)CC3)ccc2nc1-c1ccccc1 [44J, 4-((7-(4-(4-fluorophenyl)piperidine-1-carbonyl)-3-phenylquinoxalin-2-yl)amino)butanoic acid] | 2.1 to 20 | 
O=C(O)CCCNc1nc2cc(C(=O)N3CCC(c4ccc(Cl)cc4)CC3)ccc2nc1-c1ccccc1 [44K, 4-((7-(4-(4-chlorophenyl)piperidine-1-carbonyl)-3-phenylquinoxalin-2-yl)amino)butanoic acid] | 0.1 to 2 | 
O=C(O)CCCNc1nc2cc(C(=O)N3CCN(c4ccc(Cl)cc4)CC3)ccc2nc1-c1ccccc1 [44L, 4-((7-(4-(4-chlorophenyl)piperazine-1-carbonyl)-3-phenylquinoxalin-2-yl)amino)butanoic acid] | 2.1 to 20 | 

SMILES | Ki (rated A-E (Table A)) [nM] | Ki (values in text) [nM]
O=C(O)CCCNc1nc2cc(C(=O)N3CC[C@H](c4ccccc4)C3)ccc2nc1-c1ccccc1 [44M, (R)-4-((3-phenyl-7-(3-phenylpyrrolidine-1-carbonyl)quinoxalin-2-yl)amino)butanoic acid] | 2.1 to 20 | 
C[C@@H]1CN(c2ccccc2)CCN1C(=O)c1ccc2nc(-c3ccccc3)c(NCCCC(=O)O)nc2c1 [44N, (R)-4-((7-(2-methyl-4-phenylpiperazine-1-carbonyl)-3-phenylquinoxalin-2-yl)amino)butanoic acid] | 2.1 to 20 | 
O=C(O)CCCNc1nc2cc(C(=O)N[C@@H]3CCCc4ccccc43)ccc2nc1-c1ccccc1 [44i, (R)-4-((3-phenyl-7-((1,2,3,4-tetrahydronaphthalen-1-yl)carbamoyl)quinoxalin-2-yl)amino)butanoic acid] | 0.1 to 2 | 
O=C(O)CCCCc1nc2cc(C(=O)C3CC3)ccc2nc1-c1cccc(F)c1 [compound 3, 5-[7-(Cyclopropanecarbonyl)-3-(3-fluorophenyl)quinoxalin-2-yl]pentanoic Acid] | 2.1 to 20 | 3.2
C[C@H](NC(=O)c1ccc2nc(-c3ccc(C(F)(F)F)cc3)c(CCCCC(=O)O)nc2c1)c1cccc(-c2ccccc2)c1 [compound 4, (S)-5-{7-[1-(biphenyl-3-yl)ethylcarbamoyl]-3-[4-(trifluoromethyl)phenyl]quinoxalin-2-yl}pentanoic Acid] | 2.1 to 20 | 
O=C(O)CCCCc1nc2cc(C(=O)C3CC3)ccc2nc1-c1ccc(F)cc1 [compound 5, 5-(7-(cyclopropanecarbonyl)-3-(4-fluorophenyl)quinoxalin-2-yl)pentanoic acid] | 0.1 to 2 | 
CCC(=O)c1ccc2nc(-c3ccccc3)c(CCCCC(=O)O)nc2c1 [compound 6, 7-(1-oxopropyl)-3-phenyl-2-quinoxalinepentanoic acid] | 0.1 to 2 | 
CNC(=O)c1ccc2nc(-c3ccc(F)cc3)c(CCCCC(=O)O)nc2c1 [compound 7, 3-(4-fluorophenyl)-7-[(methylamino)carbonyl]-2-quinoxalinepentanoic acid] | 2.1 to 20 | 
O=C(O)CCCCc1nc2ccc(C(=O)NCc3cccc(Cl)c3)cc2nc1-c1ccccc1 [compound 8] | 20.1 to 200 | 
COC(=O)c1ccc2nc(-c3ccccc3)c(OCCCC(=O)O)nc2c1 [compound 9, 4-{[7-(Methoxycarbonyl)-3-phenylquinoxalin-2-yl]oxy}butanoic Acid] | 2.1 to 20 | 
O=C(O)CCCOc1nc2cc(C(=O)NCc3cccnc3)ccc2nc1-c1ccccc1 [compound 10, 4-({3-Phenyl-7-[(pyridin-3-ylmethyl)carbamoyl]quinoxalin-2-yl}oxy)butanoic Acid] | 2.1 to 20 | 
O=C(O)CCCCc1nc2cc(NC(=O)Cc3ccc(Cl)c(Cl)c3)ccc2nc1-c1ccccc1 [compound 11] | 20.1 to 200 | 
O=C(O)CCCCc1nc2cc(NS(=O)(=O)Cc3ccccc3)ccc2nc1-c1ccccc1 [compound 12, 5-{7-[(benzylsulfonyl)amino]-3-phenylquinoxalin-2-yl}pentanoic Acid] | 201 to 700 | 
COC(=O)c1cnc2nc(-c3ccccc3)c(CCCCC(=O)O)nc2c1 [compound 13, 5-[7-(Methoxycarbonyl)-3-phenylpyrido[2,3-b]pyrazin-2-yl]pentanoic Acid] | 20.1 to 200 | 
O=C(O)CCCCc1nc2cc(C(=O)NCc3ccc(C(F)(F)F)cc3)cnc2nc1-c1ccccc1 [compound 14] | 2.1 to 20 | 
O=C(O)CCCCc1nc2cc(C(=O)NCc3ccc(Cl)cc3)ccc2nc1-c1ccc(Cl)cc1 [compound 16] | 0.1 to 2 | 
